Converted amounts (≈) assume the structure as drawn.
What was measured:
[1] = system: Streptococcus salivarius KLE 2370; assay: MIC, commensal bacteria; assay type: cell-based; conditions: KLE2370
Description: (§1) II. Materials and Methods for Biological Experiments
(§2) S. aureus ATCC 29213 and E. coli MG1655 were obtained from the American Type Culture Collection (ATCC). E. coli BW25113 and E. coli JW5503 were obtained from the Keio Collection. AR-bank strains were obtained from the Centers for Disease Control and Prevention and FDA Antibiotic Resistance Isolate Bank.
(§3) Antimicrobial susceptibility tests
(§4) Susceptibility testing was performed in biological triplicate, unless noted otherwise, using the micro-dilution broth method as outlined by the Clinical and Laboratory Standards Institute. Bacteria were cultured with cation-adjusted Mueller Hinton broth (Sigma Aldrich, catalogue number: 90922). […]
(§5) Error bars represent the standard error of the mean of three biological replicates. All compounds evaluated in biological assays were ≥95% pure.

[2] = system: Stenotrophomonas maltophilia ATCC 13637; assay: MIC, commensal bacteria; assay type: cell-based; conditions: ATCC13637
Description: as §1, §2, §3, §4, §5

[3] = system: Bacteroides fragilis ATCC 25285; assay: MIC, commensal bacteria; assay type: cell-based; conditions: ATCC25285
Description: as §1, §2, §3, §4, §5

[4] = system: Blautia producta ATCC 27340; assay: MIC, commensal bacteria; assay type: cell-based; conditions: ATCC27340
Description: as §1, §2, §3, §4
(§6) NH3: m/z 391.2 → 171.0. Fabimycin: m/z 405.3 → 145.3. Power analysis was not used to determine the number of replicates. Error bars represent the standard error of the mean of three biological replicates. All compounds evaluated in biological assays were ≥95% pure.

[5] = system: Lactobacillus reuteri ATCC 23272; assay: MIC, commensal bacteria; assay type: cell-based; conditions: Limosilactobacillus reuteri, ATCC23272
Description: as §1, §2, §3, §4, §6

[6] = system: Bifidobacterium longum ATCC BAA999; assay: MIC, commensal bacteria; assay type: cell-based; conditions: ATCCBAA999
Description: as §1, §2, §3, §4, §6

[7] = system: Streptococcus parasanguinis KLE 2375; assay: MIC, commensal bacteria; assay type: cell-based; conditions: KLE2375
Description: as §1, §2, §3, §4, §6

[8] = system: Enterococcus faecalis KLE 2341; assay: MIC, commensal bacteria; assay type: cell-based; conditions: KLE2341
Description: as §1, §2, §3, §4, §6

[9] = biological target: hERG ion channel (Homo sapiens, UniProt Q12809); assay: hERG activity
hERG ion channel, sequence (Q12809 whole entry): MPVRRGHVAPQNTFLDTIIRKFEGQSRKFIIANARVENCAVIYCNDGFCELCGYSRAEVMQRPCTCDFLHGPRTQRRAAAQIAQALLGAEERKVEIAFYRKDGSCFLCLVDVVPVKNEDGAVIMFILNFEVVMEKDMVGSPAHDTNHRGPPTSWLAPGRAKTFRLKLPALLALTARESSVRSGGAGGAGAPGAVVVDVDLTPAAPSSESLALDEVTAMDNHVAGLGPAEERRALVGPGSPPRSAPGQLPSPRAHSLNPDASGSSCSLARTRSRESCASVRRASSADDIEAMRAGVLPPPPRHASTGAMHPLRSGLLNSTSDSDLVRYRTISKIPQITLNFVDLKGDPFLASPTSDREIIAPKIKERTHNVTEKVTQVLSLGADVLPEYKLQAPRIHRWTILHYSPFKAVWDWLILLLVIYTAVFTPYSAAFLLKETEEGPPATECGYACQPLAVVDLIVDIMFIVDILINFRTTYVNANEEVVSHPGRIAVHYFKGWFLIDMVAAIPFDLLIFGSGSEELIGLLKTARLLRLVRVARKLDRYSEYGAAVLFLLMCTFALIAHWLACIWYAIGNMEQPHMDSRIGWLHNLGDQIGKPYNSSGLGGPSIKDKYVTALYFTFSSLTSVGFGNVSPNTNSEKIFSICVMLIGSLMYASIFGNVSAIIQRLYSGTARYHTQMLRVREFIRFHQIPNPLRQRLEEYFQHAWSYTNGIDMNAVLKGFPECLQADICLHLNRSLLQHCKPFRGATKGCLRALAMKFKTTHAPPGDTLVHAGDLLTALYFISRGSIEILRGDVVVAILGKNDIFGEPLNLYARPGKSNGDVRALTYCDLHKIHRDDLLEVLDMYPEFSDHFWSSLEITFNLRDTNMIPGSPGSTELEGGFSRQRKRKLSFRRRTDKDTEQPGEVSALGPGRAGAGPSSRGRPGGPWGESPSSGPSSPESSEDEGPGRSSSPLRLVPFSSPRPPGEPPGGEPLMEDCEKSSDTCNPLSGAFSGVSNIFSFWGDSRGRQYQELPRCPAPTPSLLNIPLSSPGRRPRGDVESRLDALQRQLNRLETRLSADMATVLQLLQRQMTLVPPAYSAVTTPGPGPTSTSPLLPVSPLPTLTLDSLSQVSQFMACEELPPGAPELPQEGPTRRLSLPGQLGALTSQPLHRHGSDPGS

[10] = system: human red blood cells; assay: Human red blood cell hemolysis; assay type: cell-based; conditions: 200 μM; 2 hours at 37 °C
Description: drug is tested in duplicate. Compounds were diluted from 10mM DMSO stocks to 5 µM in mouse or human plasma (BioreclamationIVT, Baltimore, MD). The dialysis plate (Rapid Equilibrium Dialysis (RED) device; Thermo Scientific, Waltham, MA) was prepared by adding pH 7.4 phosphate buffer to one chamber of the RED device and dosing solution to the other chamber. The plate was sealed with an adhesive tape and incubated at 37 °C while shaking for 4 hours. Equal volumes of post-dialysis samples were removed from both the plasma and the buffer chambers into separate microcentrifuge tubes, and equal volumes (100µL) of fresh phosphate buffer and plasma were added to the tubes, respectively. […] Percentage binding is determined using the following equation: Binding % = (Concentration of test compound in plasma at equilibrium (Cpe) – Concentration of test compound in buffer at equilibrium (Cb)) / Cpe x 100. […]
Next, 10 µL of washed erythrocyte suspension was added to each tube and sealed. […] Absorbance was measured at 540 nm. […]
from Charles River were used. […] No additional randomization was used to allocate the experimental groups; blinding was not performed for subsequent quantitation.
(§7) The MTD of a single dosage of a given compound was determined before evaluating the MTD of multiple dosages. […]
weeks (single dose). The single-dose MTDs were determined first. […]

[11] = in vivo
Description: Mouse maximum tolerated dose (MTD) of fabimycin
The protocol to assess fabimycin’s murine MTD when formulated in 20% sulfobutyl ether(7) β-cyclodextrin (SBE-β-CD) in H2O was approved by the Institutional Animal Care and Use Committee (IACUC) at the University of Illinois at Urbana-Champaign (protocol number: 19181). […]
from Charles River were used. Mice were randomly chosen and divided into subsequent groups. No additional randomization was used to allocate the experimental groups; blinding was not performed for subsequent quantitation.
as §7
weeks (single dose). The single-dose MTDs were determined first. For multiple doses, the compound was given by daily […]
highest dosage with acceptable toxicity (<20% weight loss). MTD values shown for Debio-1452-NH3 are as previously reported.3 MTD values for fabimycin when formulated in 17% Cremophor EL/3% SBE-β-CD were drawn from infection models conducted with neutropenic A. baumannii-infected mice (see below). […]
River Licensee) weighing 18 ± 2 grams were used.10 All animals were specific pathogen free. Mice were rendered neutropenic via cyclophosphamide (CP) administration by two intraperitoneal (IP) injections following a standard method for mouse thigh infection models.11 The first CP dose, 150 mg/kg, was administered at four days before infection (Day –4); and the second, 100 mg/kg, at 24 h before infection (Day –1), prior to infection on Day 0.

SMILES: Cc1c(CN(C)C(=O)/C=C/c2cnc3c(c2)CC[C@H](N)C(=O)N3)oc2ccccc12 [fabimycin]
- MIC [1]: > 128 µg/mL
- MIC [2]: 128 µg/mL (≈ 316 µM)
- MIC [3]: > 128 µg/mL
- MIC [4]: > 128 µg/mL
- MIC [5]: 64 µg/mL (≈ 158 µM)
- MIC [6]: > 128 µg/mL
- MIC [7]: 128 µg/mL (≈ 316 µM)
- MIC [8]: > 128 µg/mL
- activity against the hERG ion channel [9]: lower activity against the hERG ion channel relative to both Debio-1452 and Debio-1452-NH3
- lysis of human red blood cells [10]: nonhemolytic
- MTD ([11]; BALB/c, mouse, iv): 100 mg/kg
- MTD at 1 day ([11]; BALB/c, mouse, iv): 75 mg/kg
- MTD at 3 d ([11]; BALB/c, mouse, iv): 75 mg/kg
- MTD at 2 weeks ([11]; female, C57BL/6, mouse, ip): > 200 mg/kg
- MTD at 1 day ([11]; female, C57BL/6, mouse, ip): > 200 mg/kg
- MTD at 5 d ([11]; female, C57BL/6, mouse, ip): > 100 mg/kg

Source: PMC9413440, “An Iterative Approach Guides Discovery of the FabI Inhibitor Fabimycin, a Late-Stage Antibiotic Candidate with In Vivo Efficacy against Drug-Resistant Gram-Negative Infections” (ACS Central Science, 2022)
